Values quoted from earlier work, collected in patent US20190321395A1, “TREATMENT OF PSORIASIS, SEBORRHEIC DERMATITIS, AND ECZEMA OF THE HEAD AND NECK” (Oread Therapeutics, priority 2018, published 2019).

Structure (SMILES) | Water Solubility [µg/mL]
CC(=O)N1CCN(c2ccc(OCC3COC(Cn4ccnc4)(c4ccc(Cl)cc4Cl)O3)cc2)CC1 (centres unmarked) [Ketoconazole] | 0.9
[O-][n+]1ccccc1[S-].[O-][n+]1ccccc1[S-].[Zn+2] [Pyrithione Zinc] | 86.00
